Measured values reported in the kinase profiling compilation of Christmann-Franck et al. (2016).
Blank lines part the entries; values can stand above or below the molecule they belong to.

Tests used:
Test in all cases: radiometric filter-binding kinase assay
PRKCA (human) = PRKCA (human) (UniProt P17252)
EPHA2 (human) = EPHA2 (human) (UniProt P29317)
MINK1 (human) = MINK1 (human) (UniProt Q8N4C8)
PRKACA (human) = PRKACA (human) (UniProt P17612)
AURKA (human) = AURKA (human) (UniProt O14965)
ERBB4 (human) = ERBB4 (human) (UniProt Q15303); settings: compound 10.0 µM
FGFR1 (human) = FGFR1 (human) (UniProt P11362)
MAP2K6 (human) = MAP2K6 (human) (UniProt P52564)
CDK2 CCNA2 (human) = CDK2 CCNA2 (human) (UniProt P20248+P24941)
[1] = tested on: SGK1 (human), O00141 [S422D]
SGK1 (human), O00141 [S422D], sequence (O00141 whole entry S422D, looked up): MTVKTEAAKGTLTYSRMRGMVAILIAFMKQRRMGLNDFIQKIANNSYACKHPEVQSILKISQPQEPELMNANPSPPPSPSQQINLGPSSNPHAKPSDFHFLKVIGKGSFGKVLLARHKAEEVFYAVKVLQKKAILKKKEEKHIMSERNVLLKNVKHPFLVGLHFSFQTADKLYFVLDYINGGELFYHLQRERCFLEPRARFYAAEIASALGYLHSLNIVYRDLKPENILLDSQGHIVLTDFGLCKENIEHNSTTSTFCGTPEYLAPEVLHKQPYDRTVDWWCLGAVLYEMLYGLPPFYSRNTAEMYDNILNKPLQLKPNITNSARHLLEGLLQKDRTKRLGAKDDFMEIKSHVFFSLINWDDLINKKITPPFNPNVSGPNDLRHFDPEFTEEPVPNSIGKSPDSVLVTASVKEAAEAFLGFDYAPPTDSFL

MAPKAPK3 (human) = MAPKAPK3 (human) (UniProt Q16644)
MAPKAPK3 (human), sequence (Q16644 whole entry, looked up): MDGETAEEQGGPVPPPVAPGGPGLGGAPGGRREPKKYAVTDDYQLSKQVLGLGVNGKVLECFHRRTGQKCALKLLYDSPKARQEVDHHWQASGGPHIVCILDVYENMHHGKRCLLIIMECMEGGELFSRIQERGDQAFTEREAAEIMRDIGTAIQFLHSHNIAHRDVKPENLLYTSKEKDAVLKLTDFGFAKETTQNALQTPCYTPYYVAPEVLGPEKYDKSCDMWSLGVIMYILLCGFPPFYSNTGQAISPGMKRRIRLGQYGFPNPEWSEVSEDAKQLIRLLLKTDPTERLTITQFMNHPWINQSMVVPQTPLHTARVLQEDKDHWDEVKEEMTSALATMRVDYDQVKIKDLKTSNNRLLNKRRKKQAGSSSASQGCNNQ

INSRR (human) = INSRR (human) (UniProt P14616)
MAPK15 (human) = MAPK15 (human) (UniProt Q8TD08)
GCK (human) = GCK (human) (UniProt Q12851)
EEF2K (human) = EEF2K (human) (UniProt O00418)
CHEK1 (human) = CHEK1 (human) (UniProt O14757)
MAPK10 (human) = MAPK10 (human) (UniProt P53779); settings: compound 10.0 µM
MAPK12 (human) = MAPK12 (human) (UniProt P53778)
MAPK12 (human), sequence (P53778 whole entry, looked up): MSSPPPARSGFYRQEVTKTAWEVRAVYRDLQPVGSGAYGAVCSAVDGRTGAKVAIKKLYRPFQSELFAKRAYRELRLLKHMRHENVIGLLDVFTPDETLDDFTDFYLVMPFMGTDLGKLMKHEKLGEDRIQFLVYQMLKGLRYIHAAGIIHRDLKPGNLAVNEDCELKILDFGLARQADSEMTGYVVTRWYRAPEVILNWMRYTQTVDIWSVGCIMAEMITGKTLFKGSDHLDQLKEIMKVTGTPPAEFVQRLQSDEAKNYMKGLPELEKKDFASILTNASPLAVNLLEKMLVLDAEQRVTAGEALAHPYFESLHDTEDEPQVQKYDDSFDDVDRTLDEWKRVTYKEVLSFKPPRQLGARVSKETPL

TAOK1 (human) = TAOK1 (human) (UniProt Q7L7X3)
DYRK2 (human) = DYRK2 (human) (UniProt Q92630)
BRSK1 (human) = BRSK1 (human) (UniProt Q8TDC3)
AURKB (human) = AURKB (human) (UniProt Q96GD4)
AURKB (human), sequence (Q96GD4 whole entry, looked up): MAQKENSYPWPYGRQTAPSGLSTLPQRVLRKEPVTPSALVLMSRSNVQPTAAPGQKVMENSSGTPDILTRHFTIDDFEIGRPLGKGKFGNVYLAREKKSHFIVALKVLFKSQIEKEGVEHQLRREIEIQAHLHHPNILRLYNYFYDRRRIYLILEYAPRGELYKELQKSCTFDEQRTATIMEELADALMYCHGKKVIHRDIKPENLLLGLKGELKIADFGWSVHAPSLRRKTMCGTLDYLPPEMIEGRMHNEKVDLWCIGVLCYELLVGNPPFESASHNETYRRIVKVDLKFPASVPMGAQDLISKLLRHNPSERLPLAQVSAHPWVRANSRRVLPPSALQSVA

MAP2K2 (human) = MAP2K2 (human) (UniProt P36507)
MAP2K2 (human), sequence (P36507 whole entry, looked up): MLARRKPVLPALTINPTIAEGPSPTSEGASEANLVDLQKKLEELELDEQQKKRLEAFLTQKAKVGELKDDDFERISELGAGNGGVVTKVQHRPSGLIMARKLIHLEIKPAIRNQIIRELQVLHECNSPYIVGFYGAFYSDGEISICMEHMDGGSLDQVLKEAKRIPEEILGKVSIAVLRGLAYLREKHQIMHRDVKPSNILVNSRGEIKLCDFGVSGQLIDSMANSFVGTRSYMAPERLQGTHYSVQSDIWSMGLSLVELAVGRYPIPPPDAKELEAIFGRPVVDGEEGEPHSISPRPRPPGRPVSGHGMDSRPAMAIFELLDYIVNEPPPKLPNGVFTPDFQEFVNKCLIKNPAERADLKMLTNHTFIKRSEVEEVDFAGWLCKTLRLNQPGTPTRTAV

PHKG1 (human) = PHKG1 (human) (UniProt Q16816)
PHKG1 (human), sequence (Q16816 whole entry, looked up): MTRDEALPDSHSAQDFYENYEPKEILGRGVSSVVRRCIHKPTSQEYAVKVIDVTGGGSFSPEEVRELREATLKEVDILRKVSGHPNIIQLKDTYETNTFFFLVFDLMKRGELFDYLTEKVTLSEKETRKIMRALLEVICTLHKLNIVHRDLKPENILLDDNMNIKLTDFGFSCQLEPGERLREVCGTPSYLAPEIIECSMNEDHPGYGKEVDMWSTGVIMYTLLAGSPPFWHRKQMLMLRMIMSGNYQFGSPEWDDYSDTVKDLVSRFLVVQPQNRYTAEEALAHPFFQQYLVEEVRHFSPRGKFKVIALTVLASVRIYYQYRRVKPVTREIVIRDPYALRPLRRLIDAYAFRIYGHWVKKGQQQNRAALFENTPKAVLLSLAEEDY

MELK (human) = MELK (human) (UniProt Q14680)
RIPK2 (human) = RIPK2 (human) (UniProt O43353)
RIPK2 (human), sequence (O43353 whole entry, looked up): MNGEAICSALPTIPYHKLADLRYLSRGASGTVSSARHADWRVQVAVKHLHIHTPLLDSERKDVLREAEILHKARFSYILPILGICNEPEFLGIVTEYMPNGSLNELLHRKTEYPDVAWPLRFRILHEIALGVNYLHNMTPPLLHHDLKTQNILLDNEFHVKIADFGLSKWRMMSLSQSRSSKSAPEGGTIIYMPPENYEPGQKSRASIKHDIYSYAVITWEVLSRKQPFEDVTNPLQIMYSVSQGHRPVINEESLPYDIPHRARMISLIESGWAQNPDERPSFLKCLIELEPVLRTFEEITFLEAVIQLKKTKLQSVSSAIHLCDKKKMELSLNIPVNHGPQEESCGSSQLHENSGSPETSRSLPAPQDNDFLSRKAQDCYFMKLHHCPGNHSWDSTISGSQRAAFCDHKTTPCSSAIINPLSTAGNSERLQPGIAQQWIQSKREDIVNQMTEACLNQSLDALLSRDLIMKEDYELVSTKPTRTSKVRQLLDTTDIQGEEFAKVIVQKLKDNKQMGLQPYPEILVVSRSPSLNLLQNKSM

MAPKAPK5 (human) = MAPKAPK5 (human) (UniProt Q8IW41)
MAPKAPK5 (human), sequence (Q8IW41 whole entry, looked up): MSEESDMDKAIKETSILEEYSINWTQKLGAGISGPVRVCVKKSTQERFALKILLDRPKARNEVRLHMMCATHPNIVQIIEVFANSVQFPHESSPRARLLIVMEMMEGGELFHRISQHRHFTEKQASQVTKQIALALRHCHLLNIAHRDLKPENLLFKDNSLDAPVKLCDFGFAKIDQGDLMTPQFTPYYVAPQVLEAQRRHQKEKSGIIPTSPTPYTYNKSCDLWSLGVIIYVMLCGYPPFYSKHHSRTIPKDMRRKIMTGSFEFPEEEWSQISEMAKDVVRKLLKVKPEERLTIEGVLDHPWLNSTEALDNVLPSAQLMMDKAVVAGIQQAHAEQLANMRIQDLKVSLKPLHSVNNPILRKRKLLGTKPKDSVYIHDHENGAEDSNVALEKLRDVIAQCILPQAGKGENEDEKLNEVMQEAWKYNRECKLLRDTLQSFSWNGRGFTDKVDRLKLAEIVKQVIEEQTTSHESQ

CSNK2A1 (human) = CSNK2A1 (human) (UniProt P68400)
BTK (human) = BTK (human) (UniProt Q06187)
PIM3 (human) = PIM3 (human) (UniProt Q86V86)
MST4 (human) = MST4 (human) (UniProt Q9P289)
MST4 (human), sequence (Q9P289 whole entry, looked up): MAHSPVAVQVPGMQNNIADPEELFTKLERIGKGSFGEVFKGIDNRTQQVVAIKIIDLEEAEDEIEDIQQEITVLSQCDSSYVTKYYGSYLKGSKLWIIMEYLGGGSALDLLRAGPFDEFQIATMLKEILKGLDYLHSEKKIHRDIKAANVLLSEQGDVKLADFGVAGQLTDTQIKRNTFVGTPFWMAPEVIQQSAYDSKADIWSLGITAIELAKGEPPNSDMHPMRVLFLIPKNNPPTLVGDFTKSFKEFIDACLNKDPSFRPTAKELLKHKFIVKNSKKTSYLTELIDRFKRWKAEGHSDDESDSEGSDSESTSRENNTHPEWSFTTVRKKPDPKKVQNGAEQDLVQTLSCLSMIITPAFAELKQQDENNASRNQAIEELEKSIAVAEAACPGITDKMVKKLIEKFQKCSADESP

SRPK1 (human) = SRPK1 (human) (UniProt Q96SB4)
SRPK1 (human), sequence (Q96SB4 whole entry, looked up): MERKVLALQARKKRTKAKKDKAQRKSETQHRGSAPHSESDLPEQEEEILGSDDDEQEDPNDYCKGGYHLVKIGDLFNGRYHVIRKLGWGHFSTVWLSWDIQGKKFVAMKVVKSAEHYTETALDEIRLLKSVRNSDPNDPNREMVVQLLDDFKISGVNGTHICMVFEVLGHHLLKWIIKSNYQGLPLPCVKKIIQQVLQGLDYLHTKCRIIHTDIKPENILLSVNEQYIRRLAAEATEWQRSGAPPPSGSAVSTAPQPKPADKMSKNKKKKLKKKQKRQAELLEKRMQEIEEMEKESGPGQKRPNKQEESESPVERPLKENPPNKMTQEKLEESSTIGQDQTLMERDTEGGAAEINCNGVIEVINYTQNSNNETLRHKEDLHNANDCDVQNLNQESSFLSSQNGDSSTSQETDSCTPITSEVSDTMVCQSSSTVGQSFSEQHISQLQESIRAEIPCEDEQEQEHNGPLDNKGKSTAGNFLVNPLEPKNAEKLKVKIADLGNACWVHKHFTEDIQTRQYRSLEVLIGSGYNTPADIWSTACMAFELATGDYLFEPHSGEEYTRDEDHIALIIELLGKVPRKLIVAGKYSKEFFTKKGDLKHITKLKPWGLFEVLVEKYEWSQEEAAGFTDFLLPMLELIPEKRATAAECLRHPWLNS

RPS6KA3 KD1 KD2 (human) = RPS6KA3 KD1 KD2 (human) (UniProt P51812)
[2] = tested on: PAK2 (human), Q13177 [T402E]; settings: compound 10.0 µM
FLT1 (human) = FLT1 (human) (UniProt P17948); settings: compound 10.0 µM
PIM2 (human) = PIM2 (human) (UniProt Q9P1W9); settings: compound 10.0 µM

residual activity (PRKCA (human); compound 1.0 µM): 100% | residual activity (PRKCA (human); compound 10.0 µM): 108% | residual activity (EPHA2 (human); compound 1.0 µM): 86% | residual activity (EPHA2 (human); compound 10.0 µM): 94% | residual activity (MINK1 (human); compound 1.0 µM): 117% | residual activity (MINK1 (human); compound 10.0 µM): 144% | residual activity (PRKACA (human); compound 1.0 µM): 87% | residual activity (PRKACA (human); compound 10.0 µM): 97% | residual activity (AURKA (human); compound 1.0 µM): 112% | residual activity (AURKA (human); compound 10.0 µM): 108% | residual activity (ERBB4 (human)): 87% | residual activity (FGFR1 (human); compound 1.0 µM): 140% | residual activity (FGFR1 (human); compound 10.0 µM): 83% | residual activity (MAP2K6 (human); compound 1.0 µM): 93% | residual activity (MAP2K6 (human); compound 10.0 µM): 102% | residual activity (CDK2 CCNA2 (human); compound 1.0 µM): 110% | residual activity (CDK2 CCNA2 (human); compound 10.0 µM): 109% | residual activity ([1]; compound 1.0 µM): 69% | residual activity ([1]; compound 10.0 µM): 74% | residual activity (MAPKAPK3 (human); compound 1.0 µM): 90% | residual activity (MAPKAPK3 (human); compound 10.0 µM): 89% | residual activity (INSRR (human); compound 1.0 µM): 106% | residual activity (GCK (human); compound 1.0 µM): 90% | residual activity (EEF2K (human); compound 1.0 µM): 83% | residual activity (EEF2K (human); compound 10.0 µM): 93% | residual activity (CHEK1 (human); compound 1.0 µM): 130% | residual activity (CHEK1 (human); compound 10.0 µM): 122% | residual activity (MAPK10 (human)): 85% | residual activity (MAPK12 (human); compound 1.0 µM): 91% | residual activity (MAPK12 (human); compound 10.0 µM): 98% | residual activity (TAOK1 (human); compound 1.0 µM): 101% | residual activity (TAOK1 (human); compound 10.0 µM): 109% | residual activity (DYRK2 (human); compound 1.0 µM): 99% | residual activity (DYRK2 (human); compound 10.0 µM): 107% | residual activity (BRSK1 (human); compound 1.0 µM): 97% | residual activity (BRSK1 (human); compound 10.0 µM): 112% | residual activity (AURKB (human); compound 1.0 µM): 87% | residual activity (AURKB (human); compound 10.0 µM): 82% | residual activity (MAP2K2 (human); compound 1.0 µM): 54% | residual activity (MAP2K2 (human); compound 10.0 µM): 16% | residual activity (PHKG1 (human); compound 1.0 µM): 95% | residual activity (PHKG1 (human); compound 10.0 µM): 90% | residual activity (MELK (human); compound 1.0 µM): 81% | residual activity (MELK (human); compound 10.0 µM): 97% | residual activity (RIPK2 (human); compound 1.0 µM): 99% | residual activity (RIPK2 (human); compound 10.0 µM): 100% | residual activity (MAPKAPK5 (human); compound 1.0 µM): 98% | residual activity (MAPKAPK5 (human); compound 10.0 µM): 99% | residual activity (CSNK2A1 (human); compound 1.0 µM): 107% | residual activity (CSNK2A1 (human); compound 10.0 µM): 118% | residual activity (BTK (human); compound 1.0 µM): 110% | residual activity (BTK (human); compound 10.0 µM): 100% | residual activity (PIM3 (human); compound 1.0 µM): 78% | residual activity (PIM3 (human); compound 10.0 µM): 72% | residual activity (MST4 (human); compound 1.0 µM): 103% | residual activity (MST4 (human); compound 10.0 µM): 104% | residual activity (SRPK1 (human); compound 1.0 µM): 80% | residual activity (SRPK1 (human); compound 10.0 µM): 95% | residual activity (RPS6KA3 KD1 KD2 (human); compound 1.0 µM): 104% | residual activity (RPS6KA3 KD1 KD2 (human); compound 10.0 µM): 92% | residual activity [2]: 91% | residual activity (FLT1 (human)): 39%
Compound: O=C(NOC[C@H](O)CO)c1ccc(F)c(F)c1Nc1ccc(I)cc1Cl
residual activity (MAPK15 (human); compound 1.0 µM): 104% | residual activity (MAPK15 (human); compound 10.0 µM): 96%

residual activity (PRKCA (human); compound 10.0 µM): 82% | residual activity (MINK1 (human); compound 10.0 µM): 89% | residual activity (PRKACA (human); compound 10.0 µM): 103% | residual activity (AURKA (human); compound 10.0 µM): 99% | residual activity (ERBB4 (human)): 105% | residual activity (FGFR1 (human); compound 10.0 µM): 106% | residual activity (MAP2K6 (human); compound 10.0 µM): 95% | residual activity (CDK2 CCNA2 (human); compound 10.0 µM): 88% | residual activity ([1]; compound 10.0 µM): 70% | residual activity (MAPKAPK3 (human); compound 10.0 µM): 90% | residual activity (INSRR (human); compound 10.0 µM): 102% | residual activity (GCK (human); compound 10.0 µM): 80% | residual activity (EEF2K (human); compound 10.0 µM): 79% | residual activity (CHEK1 (human); compound 10.0 µM): 96% | residual activity (MAPK10 (human)): 93% | residual activity (MAPK12 (human); compound 10.0 µM): 72% | residual activity (TAOK1 (human); compound 10.0 µM): 98% | residual activity (DYRK2 (human); compound 10.0 µM): 107% | residual activity (BRSK1 (human); compound 10.0 µM): 109% | residual activity (AURKB (human); compound 10.0 µM): 96% | residual activity (MAP2K2 (human); compound 10.0 µM): 99% | residual activity (PHKG1 (human); compound 10.0 µM): 90% | residual activity (MELK (human); compound 10.0 µM): 107% | residual activity (RIPK2 (human); compound 10.0 µM): 109% | residual activity (MAPKAPK5 (human); compound 10.0 µM): 85% | residual activity (CSNK2A1 (human); compound 10.0 µM): 79% | residual activity (BTK (human); compound 10.0 µM): 86% | residual activity (PIM3 (human); compound 10.0 µM): 116% | residual activity (MST4 (human); compound 10.0 µM): 104% | residual activity (SRPK1 (human); compound 10.0 µM): 82% | residual activity (PIM2 (human)): 97% | residual activity (RPS6KA3 KD1 KD2 (human); compound 10.0 µM): 86% | residual activity [2]: 98% | residual activity (FLT1 (human)): 78%
Compound: O=S(=O)(c1ccc(F)c2nonc12)N1CCN(c2ncc(C(F)(F)F)cc2Cl)CC1
residual activity (MAPK15 (human); compound 10.0 µM): 79%
